Entries after “also recorded” stand apart in the source; their conditions may differ. Like-named read-outs stand apart in the source and are kept apart here.
Columns and labels:
[1] = test system: normal Sprague-Dawley and Lewis rats; assay: in vivo cardiac contractility and hemodynamics in anesthetized normal rats; parameters: species or system rat
Procedure: Selected PKCα inhibitors are evaluated in both naive rats and rats with myocardial infarction (MI) for effects on cardiac contractility and hemodynamics. The effects of inhibitors on cardiac contractility and hemodynamics are evaluated in naïve and MI rats as follows. The animals are anesthetized with isoflurane. A femoral artery is isolated and cannulated for the measurement of systemic blood pressure. A jugular vein is isolated and cannulated for the intravenous infusion of inhibitor. The right carotid artery is isolated and a Millar conductance catheter is inserted to the left ventricle (LV) of the heart. The LV systolic pressure, end-diastolic pressure, +maximum dP/dt, −minimum dP/dt, and heart rate are derived from the LV pressure waveform. Mean arterial blood pressure is derived from the systemic blood pressure waveform. Data are recorded continuously and derived using computerized data acquisition software (Notocord or Powerlab). After a period of stabilization, PKCα inhibitors are infused at the following infusion doses in naïve rats: 0.1, 0.3, 1.0, 3.0, 10, 30, 100, 300 and 1000 nmol/kg/min. The infusion of each dose is allowed to run for at least five minutes. In MI rats, the infusion doses are as follows: 10, 30, 100, 300, and 1000 nmol/kg/min for at least five minutes. Equivalent infusion volumes are administered to separate, vehicle-control naïve and MI animals. At the end of the test infusions, 5.0 μg/kg/min of dobutamine is infused.

[2] = test system: wildtype mouse hearts; assay: ex vivo working heart preparation, acute PMA infusion, wildtype hearts
Procedure: (§1) Hearts were isolated from four wild-type and four PKCα −/− (PKCα null) transgenic mice. The isolated hearts were infused with PMA at 9 different concentrations ranging from 8×10^−11 through 8×10^−7 M. Acute PMA infusion of each concentration occurred for a 7 minute period. The hearts were measured for maximal and minimal dP/dt in systole and diastole respectively.

[3] = test system: PKCα−/− hearts; assay: ex vivo working heart preparation, acute PMA infusion, PKCα null hearts; parameters: species or system mouse
Procedure: as §1

[4] = test system: PKCα-GFP; assay: translocation of PKCα-GFP indicator polypeptide, confocal microscopy; format: cell-based; details: neonatal rat cardiomyocytes, PMA 60 minutes
Procedure: A PKCα indicator was prepared by operably linking a nucleotide sequence encoding PKCα to a nucleotide sequence encoding green fluorescence protein (GFP). An expression cassette comprising the PKCα-GFP nucleotide sequence was prepared. Adenovirus comprising the PKCα-GFP expression cassette was prepared.
Neonatal rat cardiomyocytes were cultured in plastic dishes and incubated until the appropriate density was reached. The cardiomyocytes were infected with an adenovirus encoding PKCα-GFP. The cultures were incubated for 24 hours. After 24 hours the cells were incubated with either DMSO alone (the vehicle treatment) or DMSO and PMA for 60 minutes. The cells were fixed and examined by confocal microscopy.

[5] = molecular target: T1, PKCα (Rattus norvegicus, UniProt P05696); assay: confocal immunohistochemistry of PKCα localization in adult cardiomyocytes; format: cell-based; details: adult rat cardiomyocytes in culture, acute PMA stimulation
T1 construct: confocal micrographs of PKCα protein localization in adult rat cardiac myocytes at baseline (PKCα) or after PMA; endogenous in cells; host or cells: adult rat cardiomyocytes in culture

[6] = test system: isolated chicken ventricular myocytes; details: 1 μM drug; cited from earlier work
[7] = test system: isolated ventricular myocytes from adult rats; details: 10^−7 M, 1 Hz, 1 mM calcium; cited from earlier work
[8] = test system: isolated cardiac myocytes and whole guinea-pig hearts; details: cited from earlier work
[9] = test system: PKC isoforms; details: cited from earlier work
[10] = test system: MI rats; assay: in vivo cardiac contractility in anesthetized rats with myocardial infarction; parameters: species or system rat
Procedure: Selected PKCα inhibitors are evaluated in both naive rats and rats with myocardial infarction (MI) for effects on cardiac contractility and hemodynamics.
Male, Sprague-Dawley or Lewis rats weighing between 225-500 gm are anesthetized with isoflurane and an MI is induced as follows. A thoracotomy at the fourth or fifth intercostal space is done, the heart is exposed and the pericardium is opened. A 5-0 suture is placed around the left descending coronary artery 2-4 mm from its origin and permanently tied. The ribs, muscle and skin are separately closed and the animal is allowed to recover. Twenty to twenty-three weeks after surgery the animals are used to evaluate the effects of PKCα inhibitors on cardiac contractility and hemodynamics.
The effects of inhibitors on cardiac contractility and hemodynamics are evaluated in naïve and MI rats as follows. The animals are anesthetized with isoflurane. A femoral artery is isolated and cannulated for the measurement of systemic blood pressure. A jugular vein is isolated and cannulated for the intravenous infusion of inhibitor. The right carotid artery is isolated and a Millar conductance catheter is inserted to the left ventricle (LV) of the heart. […] Data are recorded continuously and derived using computerized data acquisition software (Notocord or Powerlab). […]

[11] = test system: adult wildtype mouse hearts; assay: ex vivo working heart preparation, Ro-32-0432 infusion
Procedure: Mice from all genotypes or treatment groups were anesthetized with isoflurane, and echocardiography was performed using a Hewlett Packard 5500 instrument with a 15-MHZ microprobe. Echocardiographic measurements were taken on M-mode in triplicate from four separate mice per group. The isolated ejecting mouse heart preparation used in the present study has been described in detail previously (Gulick et al. (1997) Circ. Res. 80:655-664), as was the close-chested working heart model employed here (Lorenz et al. (1997) Am. J. Physiol. 272:H1137-H1146).
The relatively selective PKCα/β inhibitory compound Ro-32-0432 [2-{8-[(Dimethylamino)methyl]-6,7,8,9-tetrahydropyrido[1,2-a]indol-3-yl}-3-(1-methylindol-3-yl)maleimide, HCl Salt] [3-{8-[(Dimethylamino)methyl]-6,7,8,9-tetrahydropyrido[1,2-a]indol-10-yl}-4-(1-methylindol-3-yl)-1H -pyrrole-2,5-dione, HCl Salt] was used as a means of directly examining the effects of acute PKCα inhibition on cardiac function and contractility using an ex vivo working heart preparation. The working heart preparation separates the inherent pump function of the heart from potential alterations in total vascular resistance as might occur if the drug were infused in vivo.
Working adult wildtype mouse hearts were infused with vehicle control (10% DMSO) or Ro-32-0432 in 10% DMSO at concentrations ranging between 4×10^−10 through 4'10^−6M. Four animals were analyzed in the Ro-32-0432 group and compared with three animals in the vehicle control group. […] The average heart rate of the vehicle and drug treated groups was 351+/=3 and 292+/−6 beats per minute, respectively. […] The approximate 20% change in acute contractile performance in the Ro-32-0432 treated group is similar to the increase in cardiac function observed in PKCα null mice.

[12] = 1000 nmol/kg/min i.v. infusion, 5 min, n=3

CN(C)C[C@@H]1CCn2cc(c3ccccc32)C2=C(C(=O)NC2=O)c2cn(c3ccccc23)CCO1 [LY333531]
maximum dP/dt increase compared to baseline [1, 12]: 28%
minimum dP/dt increase compared to baseline [1, 12]: 17%
heart rate ([1]; 1000 nmol/kg/min, baseline 315±17, not statistically significant): 294±8 beats per minute

CCCCCCCCCCCCCC(=O)O[C@@H]1[C@@H](C)[C@@]2(O)[C@@H](C=C(CO)C[C@]3(O)C(=O)C(C)=C[C@@H]23)[C@@H]2C(C)(C)[C@]12OC(C)=O [PMA, phorbol myristate acetate]
contractile performance (Maximum dP/dt or Minimum dP/dt) ([2]; 8×10^−11 through 8×10^−9 M): essentially no effect
functional performance ([2]; concentrations higher than 8×10^−9 M): marked decrease in functional performance
functional performance ([3]; highest concentrations of PMA): only a mild depression in functional performance
inotropic effect ([3]; low doses of PMA): immediate positive inotropic effect
PKCα-GFP localization [4]: highly localized and punctate staining pattern; also recorded: robust redistribution of PKCα-GFP
PKCα protein localization [5]: rapid translocation
maximum decrease in the amplitude of cell shortening [6]: 54%
twitch amplitude, of control [7]: approximately 60%
inotropic response ([8]; 10^−12 M PMA): significant positive inotropic response
inotropic response ([8]; concentrations higher than 10^−10 M PMA): negative inotropic response

CNC[C@@H]1CCn2cc(c3ccccc32)C2=C(C(=O)NC2=O)c2cn(c3ccccc23)CCO1 [LY338522]
inhibition of the PKC isoforms [9]: effective in inhibiting the PKC isoforms

[H]/N=C(/N)SCCCn1cc(C2=C(c3cn(C)c4ccccc34)C(=O)NC2=O)c2ccccc21 [Ro-31-8220]
inotropic benefit compared with dobutamine ([10]; dobutamine 5.0 μg/kg/min for 5 minutes): greater than that seen with dobutamine
percent increase in maximum dP/dt from baseline ([10]; dose dependent i.v. infusion 10-1000 nmol/kg/min, significance (P<0.05) at 300 nmol/kg/min, n=4): 21%

2-{8-[(Dimethylamino)methyl]-6,7,8,9-tetrahydropyrido[1,2-a]indol-3-yl}-3-(1-methylindol-3-yl)maleimide, HCl Salt [Ro-32-0432]
change in acute contractile performance ([11]; Ro-32-0432 treated group, similar to PKCα null mice): ~20%
average heart rate of drug treated group ([11]; during infusion, 295+/−26 before treatment): 292+/−6 beats per minute
increase in acute contractile function, measured as maximum dP/dt ([11]; infused at 4×10^−10 to 4×10^−6 M, 7 min per concentration, values summated, average dosage approx 1×10^−8 M, P<0.05): 20%
increase in left ventricular pressure developed ([11]; infused at 4×10^−10 to 4×10^−6 M, values summated, average dosage approx 1×10^−8 M, P<0.05): 20%
acute cardiac contractility upon infusion (FIG. 38) ([11]; infusion vs baseline, p<0.05): statistically significant increase

Reference: patent US20110003844A1, “REGULATION OF CARDIAC CONTRACTILITY AND HEART FAILURE PROPENSITY” (Children's Hospital Medical Center, priority 2003, published 2011)
